Results published in doi:10.1101/2025.08.21.671483v1, “In vitro and in vivo activity profiles of broad-spectrum bacterial ATP synthase inhibitors” (biorxiv, 2025).
Values after ≈ are worked out from the molar mass of the structure shown. Read-outs that look alike come from different tables or passages of the source. Where a SMILES comes first, the peptide text is derived from it. Bridges are numbered along the chain shown (N, C = ends). [ ]: non-standard residue; d: D form. The star is where a group is joined. Heptanoyl(5-Me) = CCC(C)CCCC(=O)*; Dab = NCC[C@H](N)C(=O)O

How the values were obtained:
[1] = system: T1, E. coli ATCC 25922; assay: microbe, parasite or virus in culture; design: species or system bacteria; CLSI broth microdilution MIC, no visible growth; conditions: Escherichia coli
T1 construct: ATCC 25922

[2] = system: T2, S. aureus ATCC 29740 (Newbould); assay: microbe, parasite or virus in culture; design: species or system bacteria; CLSI broth microdilution MIC, no visible growth; conditions: Staphylococcus aureus
T2 construct: ATCC 29740 (Newbould)

[3] = system: S. aureus ATCC 29740hemB; assay: microbe, parasite or virus in culture; conditions: Staphylococcus aureus, ATCC29740HEMB, read-out: MIC
[4] = system: T3, E. coli MC4100 acrAB; assay: microbe, parasite or virus in culture; conditions: Escherichia coli, MC4100ACRAB, read-out: MIC
T3 construct: MC4100 acrAB efflux-deficient

[5] = system: T4, E. coli MC4100 WT; assay: microbe, parasite or virus in culture; design: species or system bacteria; CLSI broth microdilution MIC, no visible growth; conditions: Escherichia coli, MC4100WT
T4 construct: MC4100 (ATCC 35695)

[6] = system: T5, E. coli MC4100 lptD4213; assay: microbe, parasite or virus in culture; conditions: Escherichia coli, MC4100LPTD4213, read-out: MIC
T5 construct: MC4100 lptD4213 membrane-compromised

[7] = system: T6, Escherichia coli 95882 CW-2011; assay: microbe, parasite or virus in culture; design: species or system bacteria; CLSI broth microdilution MIC, no visible growth
T6 construct: 95882 CW-2011

[8] = system: T7, Escherichia coli ATCC 35218; assay: microbe, parasite or virus in culture; design: species or system bacteria; CLSI broth microdilution MIC, no visible growth
T7 construct: ATCC 35218

[9] = system: T8, Escherichia coli 70122 CW-2007; assay: microbe, parasite or virus in culture; design: species or system bacteria; CLSI broth microdilution MIC, no visible growth
T8 construct: 70122 CW-2007

[10] = system: T9, Escherichia coli ec309; assay: microbe, parasite or virus in culture; design: species or system bacteria; CLSI broth microdilution MIC, no visible growth
T9 construct: ec309

[11] = system: T10, Escherichia coli ec302; assay: microbe, parasite or virus in culture; design: species or system bacteria; CLSI broth microdilution MIC, no visible growth
T10 construct: ec302

[12] = system: T11, Escherichia coli ec310; assay: microbe, parasite or virus in culture; design: species or system bacteria; CLSI broth microdilution MIC, no visible growth
T11 construct: ec310

[13] = system: T12, Escherichia coli ec305; assay: microbe, parasite or virus in culture; design: species or system bacteria; CLSI broth microdilution MIC, no visible growth
T12 construct: ec305

[14] = system: T13, Escherichia coli ec308; assay: microbe, parasite or virus in culture; design: species or system bacteria; CLSI broth microdilution MIC, no visible growth
T13 construct: ec308

[15] = system: T14, Escherichia coli ATCC BAA2471; assay: microbe, parasite or virus in culture; design: species or system bacteria; CLSI broth microdilution MIC, no visible growth
T14 construct: ATCC BAA-2471

[16] = system: T1, E. coli ATCC 25922; assay: microbe, parasite or virus in culture; design: species or system bacteria; CLSI broth microdilution MIC, no visible growth; conditions: Escherichia coli; remark: listed apart in the source
[17] = target: T15, E. coli ATP synthase (Escherichia coli, UniProt P68699); assay: ATP production by membrane vesicles, luciferase luminescence; format: biochemical; conditions: […] NADH, 1 mM ADP, 10 mM potassium phosphate; 30 min preincubation, 60 min reaction
T15 construct: gene atpE
From the text: ATP production by membrane vesicles, luciferase luminescence on E. coli ATP synthase

[18] = target: T16, S. aureus ATP synthase (Staphylococcus aureus, UniProt Q99SF0); assay: as above; format: biochemical; conditions: […] NADH, 1 mM ADP, 10 mM potassium phosphate; 30 min preincubation, 60 min reaction
T16 construct: gene atpE
From the text: ATP production by membrane vesicles, luciferase luminescence on S. aureus ATP synthase

[19] = system: T17, Citrobacterfreundii ATCC 8090; assay: organism not typed; design: species or system bacteria; CLSI broth microdilution MIC, no visible growth; conditions: read-out: Table 5 IMI MIC
T17 construct: ATCC 8090

C[C@H]1CC[C@]2(NC1)O[C@H]1C[C@H]3[C@@H]4CC[C@H]5C[C@@H](O)CC[C@]5(C)[C@H]4CC[C@]3(C)[C@H]1[C@@H]2C [TO, tomatidine]
MIC ([1]; ATCC25922, read-out: TO MIC): > 128 µg/mL
MIC ([2]; ATCC29740, read-out: TO MIC): > 128 µg/mL
MIC [3]: ≤ 0.25 µg/mL
MIC [4]: > 128 µg/mL
MIC ([5]; read-out: TO MIC): > 128 µg/mL
MIC [6]: > 128 µg/mL

O=C1CN(/N=C/c2ccc([N+](=O)[O-])o2)C(=O)N1 [NIT, nitrofurantoin]
MIC ([7]; 95882CW2011, read-out: NIT MIC): 8 µg/mL (≈ 33.6 µM)
MIC ([8]; ATCC35218, read-out: NIT MIC): 0.25 µg/mL (≈ 1.05 µM)
MIC ([9]; 70122CW2007, read-out: NIT MIC): 32 µg/mL (≈ 134 µM)
MIC ([10]; EC309, read-out: NIT MIC): 16 µg/mL (≈ 67.2 µM)
MIC ([11]; EC302, read-out: NIT MIC): 16 µg/mL (≈ 67.2 µM)
MIC ([12]; EC310, read-out: NIT MIC): 8 µg/mL (≈ 33.6 µM)
MIC ([13]; EC305, read-out: NIT MIC): 8 µg/mL (≈ 33.6 µM)
MIC ([14]; EC308, read-out: NIT MIC): 8 µg/mL (≈ 33.6 µM)
MIC ([15]; ATCCBAA2471, read-out: NIT MIC): 32 µg/mL (≈ 134 µM)
MIC ([16]; ATCC25922, read-out: NIT MIC): 8 µg/mL (≈ 33.6 µM)

CN(C)[C@@H]1C(O)=C(C(N)=O)C(=O)[C@@]2(O)C(O)=C3C(=O)c4c(O)cccc4[C@@](C)(O)[C@H]3C[C@@H]12 [TET, tetracycline]
MIC ([7]; 95882CW2011, read-out: TET MIC): 1 µg/mL (≈ 2.25 µM)
MIC ([8]; ATCC35218, read-out: TET MIC): 0.25 µg/mL (≈ 0.563 µM)
MIC ([10]; EC309, read-out: TET MIC): 2 µg/mL (≈ 4.5 µM)
MIC ([11]; EC302, read-out: TET MIC): 2 µg/mL (≈ 4.5 µM)
MIC ([12]; EC310, read-out: TET MIC): 2 µg/mL (≈ 4.5 µM)
MIC ([13]; EC305, read-out: TET MIC): > 128 µg/mL
MIC ([14]; EC308, read-out: TET MIC): 128 µg/mL (≈ 288 µM)
MIC ([15]; ATCCBAA2471, read-out: TET MIC): 128 µg/mL (≈ 288 µM)
MIC ([16]; ATCC25922, read-out: TET MIC): 1 µg/mL (≈ 2.25 µM)

C[C@H]1CC[C@]2(NC1)O[C@H]1C[C@H]3[C@@H]4CC[C@H]5CC(NC[C@H](N)Cc6ccc(C(F)(F)F)cc6)CC[C@]5(C)[C@H]4CC[C@]3(C)[C@H]1[C@@H]2C (stereo partly drawn) [TM-303]
MIC ([1]; ATCC25922, read-out: TM-303 MIC): 8 µg/mL (≈ 13 µM)
IC50 [17]: 3.15 ± 0.73 µM
IC50 [18]: 1.32 ± 0.22 µM
MIC ([2]; ATCC29740, read-out: TM-303 MIC): 4 µg/mL (≈ 6.49 µM)
MIC [3]: ≤ 0.25 µg/mL
MIC [4]: 4 µg/mL (≈ 6.49 µM)
MIC ([5]; read-out: TM-303 MIC): 16 µg/mL (≈ 26 µM)
MIC [6]: 2 µg/mL (≈ 3.25 µM)

CCC(C)CCCC(=O)N[C@@H](CCN)C(=O)N[C@H](C(=O)N[C@@H](CCN)C(=O)N[C@H]1CCNC(=O)[C@H]([C@@H](C)O)NC(=O)[C@H](CCN)NC(=O)[C@H](CCN)NC(=O)[C@H](CC(C)C)NC(=O)[C@@H](CC(C)C)NC(=O)[C@H](CCN)NC1=O)[C@@H](C)O (stereo partly drawn) [CST, colistin] ({Heptanoyl(5-Me)}-[Dab]T[Dab][Dab][Dab][dL]L[Dab][Dab]T; lactam 4-C)
MIC ([7]; 95882CW2011, read-out: CST MIC): 0.5 µg/mL (≈ 0.433 µM)
MIC ([8]; ATCC35218, read-out: CST MIC): 2 µg/mL (≈ 1.73 µM)
MIC ([9]; 70122CW2007, read-out: CST MIC): 1 µg/mL (≈ 0.865 µM)
MIC ([10]; EC309, read-out: CST MIC): 1 µg/mL (≈ 0.865 µM)
MIC ([11]; EC302, read-out: CST MIC): 0.5 µg/mL (≈ 0.433 µM)
MIC ([12]; EC310, read-out: CST MIC): 1 µg/mL (≈ 0.865 µM)
MIC ([13]; EC305, read-out: CST MIC): 0.5 µg/mL (≈ 0.433 µM)
MIC ([14]; EC308, read-out: CST MIC): 0.5 µg/mL (≈ 0.433 µM)
MIC ([15]; ATCCBAA2471, read-out: CST MIC): 1 µg/mL (≈ 0.865 µM)
MIC ([16]; ATCC25922, read-out: CST MIC): 1 µg/mL (≈ 0.865 µM)

C[C@@H](O)[C@H]1C(=O)N2C(C(=O)O)=C(S[C@@H]3CN[C@H](C(=O)N(C)C)C3)[C@H](C)[C@H]12 [MEM, meropenem]
MIC ([7]; 95882CW2011, read-out: MEM MIC): 4 µg/mL (≈ 10.4 µM)
MIC ([8]; ATCC35218, read-out: MEM MIC): 0.06 µg/mL (≈ 0.156 µM)
MIC ([9]; 70122CW2007, read-out: MEM MIC): 0.06 µg/mL (≈ 0.156 µM)
MIC ([10]; EC309, read-out: MEM MIC): 0.06 µg/mL (≈ 0.156 µM)
MIC ([11]; EC302, read-out: MEM MIC): 0.06 µg/mL (≈ 0.156 µM)
MIC ([12]; EC310, read-out: MEM MIC): 0.06 µg/mL (≈ 0.156 µM)
MIC ([13]; EC305, read-out: MEM MIC): 0.06 µg/mL (≈ 0.156 µM)
MIC ([14]; EC308, read-out: MEM MIC): 0.06 µg/mL (≈ 0.156 µM)
MIC ([15]; ATCCBAA2471, read-out: MEM MIC): > 32 µg/mL
MIC ([16]; ATCC25922, read-out: MEM MIC): 0.06 µg/mL (≈ 0.156 µM)

C[C@@H](O)[C@H]1C(=O)N2C(C(=O)O)=C(SCCNC=N)C[C@H]12 [IMI, imipenem]
MIC [19]: 1 µg/mL (≈ 3.34 µM)

CC(C)(O/N=C(\C(=O)N[C@@H]1C(=O)N2C(C(=O)[O-])=C(C[n+]3ccccc3)CS[C@H]12)c1csc(N)n1)C(=O)O [CAZ, ceftazidime]
MIC ([7]; 95882CW2011, read-out: CAZ MIC): 128 µg/mL (≈ 234 µM)
MIC ([8]; ATCC35218, read-out: CAZ MIC): 0.25 µg/mL (≈ 0.457 µM)
MIC ([9]; 70122CW2007, read-out: CAZ MIC): 64 µg/mL (≈ 117 µM)
MIC ([10]; EC309, read-out: CAZ MIC): 64 µg/mL (≈ 117 µM)
MIC ([11]; EC302, read-out: CAZ MIC): > 128 µg/mL
MIC ([12]; EC310, read-out: CAZ MIC): 64 µg/mL (≈ 117 µM)
MIC ([13]; EC305, read-out: CAZ MIC): 1 µg/mL (≈ 1.83 µM)
MIC ([14]; EC308, read-out: CAZ MIC): 128 µg/mL (≈ 234 µM)
MIC ([15]; ATCCBAA2471, read-out: CAZ MIC): > 128 µg/mL
MIC ([16]; ATCC25922, read-out: CAZ MIC): 0.12 µg/mL (≈ 0.22 µM)

C[C@H]1CC[C@]2(NC1)O[C@H]1C[C@H]3[C@@H]4CC[C@H]5CC(NC[C@H](N)Cc6c[nH]c7ccccc67)CC[C@]5(C)[C@H]4CC[C@]3(C)[C@H]1[C@@H]2C (stereo partly drawn) [TM-247]
MIC ([1]; ATCC25922, read-out: TM-247 MIC): 8 µg/mL (≈ 13.6 µM)
IC50 [17]: 2.12 ± 0.32 µM
IC50 [18]: 1.06 ± 0.24 µM
MIC ([2]; ATCC29740, read-out: TM-247 MIC): 2 µg/mL (≈ 3.41 µM)
MIC [3]: ≤ 0.25 µg/mL
MIC [4]: 4 µg/mL (≈ 6.82 µM)
MIC ([5]; read-out: TM-247 MIC): 16 µg/mL (≈ 27.3 µM)
MIC [6]: 2 µg/mL (≈ 3.41 µM)
